Common to all, as to type: in vivo
Assay [1] deals with Echinochloa crus-galli var. formosensis at the three-leaf stage. Kind of assay: Comparative Example: herbicidal effect test by application during growth period of paddy rice (three-leaf stage, Table 7). To be noted: active ingredient 7.5 g per 10 ares, emulsifiable concentrate applied by dropper to flooded pots, 21 days after chemical application, triplicate; for inhibition at 75 g/ha: 504 h, read-out: Weed inhibition rate (%). How it is done: As an example, the herbicidal effect on Echinochloa crus-galli var. formosensis at the three-leaf stage was confirmed by the following method, and the results are specifically shown in Table 7 as a comparative example.
Wagner pots with an area of […] were filled with paddy soil, followed by addition of water and incorporation of chemical fertilizer (N:P:K = 16:16:16), after which puddling was performed. After that, 30 seeds of Echinochloa crus-galli var. formosensis were sown at a depth of 0 cm to 1 cm. Immediately after sowing, the pots were flooded and a water depth of approximately 3 cm was maintained. Subsequent management was conducted in a glass greenhouse. When Echinochloa crus-galli var. formosensis reached the three-leaf stage, an emulsifiable concentrate prepared according to Formulation Example 5 using the compound shown below was diluted with water, and a specified amount of the diluted solution was applied by dropper. The amount of the active ingredient to be applied was equivalent to 7.5 g per 10 ares. The test was conducted in triplicate for each chemical concentration group, and the weed inhibition rate (%) was determined 21 days after chemical application using the following formula (Math. 1).

Assay [2] relates to Echinochloa crus-galli var. formosensis. Kind of assay: Test Example 1: herbicidal effect test by soil application in paddy rice. To be noted: Echinochloa crus-galli, soil, 336 h; 120 g active ingredient per 10 ares; applied immediately after sowing, flooded pots; 14 days after application; read-out: weed inhibition rate. Put shortly: (§1)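 Paddy soil in Wagner pots (1/10,000 acre) was fertilized (N:P:K 16:16:16) and puddled, then weed seeds were sown 0–1 cm deep, 30 each. Pots were flooded to ~3 cm and kept in a glass greenhouse. Emulsifiable concentrate diluted in water was dropped on immediately after sowing at 120 g a.i. per 10 ares.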

For assay [3] the test system is unchanged. Kind of assay: Test Example 2: herbicidal effect test by application during growth period of paddy rice. The following applies: Echinochloa crus-galli; 120 g per 10 ares; applied seven days after sowing, flooded pots; 14 days after application; read-out: weed inhibition rate. Put shortly:
(§2)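 Flooded paddy pot test, greenhouse. Seeds 30/species, 0–1 cm depth, water ~3 cm. EC diluted in water, dropper-applied 7 d post-sowing at 120 g a.i./10 a. Inhibition rate (%) read 14 d after treatment; n=2.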

Assay [4] relates to Digitaria ciliaris. The assay can be described thus: Test Example 3: herbicidal effect test by soil application in upland field. The following applies: Digitaria ciliaris, 120 g per 10 ares, sprayed one day after sowing, 14 days after application, read-out: weed inhibition rate. Put shortly: (§3)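 Pre-emergence test: seeds mixed into top 1 cm of alluvial loam upland soil in pots; emulsifiable concentrate diluted in water sprayed on soil one day after sowing at 100 L/10 a, 120 g a.i./10 a. Weed inhibition rate (%) scored at 14 days, in duplicate.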

In assay [5] the test system is Echinochloa crus-galli. The assay is described as above. The following applies: Echinochloa crus-galli, 120 g per 10 ares, sprayed one day after sowing, 14 days after application, read-out: weed inhibition rate. Put shortly: as §3
The test system of assay [6] is Digitaria ciliaris. The assay can be described thus: Test Example 4: herbicidal effect test by stem and leaf treatment in upland field. To be noted: Digitaria ciliaris; 120 g per 10 ares; sprayed seven days after sowing, upland soil; 14 days after application; read-out: weed inhibition rate.
For assay [7], the system named is Echinochloa crus-galli. Described as above. To be noted: Echinochloa crus-galli; 120 g per 10 ares; sprayed seven days after sowing, upland soil; 14 days after application; read-out: weed inhibition rate.
The subject of assay [8] is Chenopodium album. The assay can be described thus: Test Example 3: herbicidal effect test by soil application in upland field. The following applies: 120 g per 10 ares, sprayed one day after sowing, 14 days after application, read-out: weed inhibition rate. Put shortly:
as §3

For assay [9], the system named is Echinochloa crus-galli var. formosensis. The assay can be described thus: Test Example 5: herbicidal effect test by soil application in paddy rice (low dose). The following applies: Echinochloa crus-galli, soil, 336 h; 7.5 g per 10 ares; applied immediately after sowing, flooded pots; 14 days after application; read-out: weed inhibition rate. Put shortly: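 Pre-emergence paddy test: seeds sown 0–1 cm (30 each), pots flooded ~3 cm, greenhouse. EC dilution dropped into water right after sowing, 7.5 g a.i./10 a. Duplicate pots; weed inhibition rate (%) by formula, day 14.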

Assay [10] has the same test system. Kind of assay: Test Example 6: herbicidal effect test by application during growth period of paddy rice (low dose). To be noted: Echinochloa crus-galli; 7.5 g per 10 ares; applied seven days after sowing, flooded pots; 14 days after application; read-out: weed inhibition rate. Put shortly: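 Paddy-soil pots, flooded ~3 cm after sowing weed seeds at 0-1 cm depth, greenhouse-grown. Seven days after sowing, diluted emulsifiable concentrate applied by dropper at 7.5 g active ingredient per 10 ares. Weed inhibition rate (%) scored 14 days after application, in duplicate.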

The subject of assay [11] is Digitaria ciliaris. The assay can be described thus: Test Example 8: herbicidal effect test by stem and leaf treatment in upland field (low dose). To be noted: Digitaria ciliaris; 7.5 g per 10 ares; sprayed seven days after sowing, upland soil; 14 days after application; read-out: weed inhibition rate.
In assay [12] the test system is Echinochloa crus-galli. The assay is described as above. To be noted: Echinochloa crus-galli; 7.5 g per 10 ares; sprayed seven days after sowing, upland soil; 14 days after application; read-out: weed inhibition rate.
In assay [13] the test system is Scirpus juncoides. The assay can be described thus: Test Example 1: herbicidal effect test by soil application in paddy rice. To be noted: Schoenoplectiella juncoides, soil, 336 h; 120 g active ingredient per 10 ares; applied immediately after sowing, flooded pots; 14 days after application; read-out: weed inhibition rate. Put shortly: as §1
Assay [14] relates to Lindernia pyxidaria. Described as above. The following applies: 336 h, 120 g active ingredient per 10 ares, applied immediately after sowing, flooded pots, 14 days after application, read-out: weed inhibition rate. The protocol:
(§4) Wagner pots with an area of […] were filled with paddy soil, followed by addition of water and incorporation of chemical fertilizer (N:P:K = 16:16:16), after which puddling was performed. After that, seeds of Echinochloa crus-galli var. formosensis, broad-leaved weeds (Lindernia pyxidaria and Monochoria vaginalis), and Scirpus juncoides were sown at a depth of 0 cm to 1 cm, 30 seeds each. Immediately after sowing, the pots were flooded and a water depth of approximately 3 cm was maintained. Subsequent management was conducted in a glass greenhouse. Immediately thereafter, an emulsifiable concentrate prepared according to Formulation Example 5 using the compound shown below was diluted with water, and a specified amount of the diluted solution was applied by dropper. The amount of the active ingredient to be applied was equivalent to 120 g per 10 ares.
(§5) The present test was conducted in duplicate for each chemical concentration group, and the weed inhibition rate (%) was determined 14 days after chemical application using the following formula (Math. 1). [formula]

The subject of assay [15] is Monochoria vaginalis. The assay is described as above. To be noted: Pontederia vaginalis, soil, 336 h; 120 g active ingredient per 10 ares; applied immediately after sowing, flooded pots; 14 days after application; read-out: weed inhibition rate. How it is done: as §4, §5
In assay [16] the test system is Monochoria vaginalis. Kind of assay: Test Example 2: herbicidal effect test by application during growth period of paddy rice. To be noted: Pontederia vaginalis; 120 g per 10 ares; applied seven days after sowing, flooded pots; 14 days after application; read-out: weed inhibition rate. Put shortly:
as §2

In assay [17] the test system is Chenopodium album. The assay can be described thus: Test Example 4: herbicidal effect test by stem and leaf treatment in upland field. The following applies: 120 g per 10 ares, sprayed seven days after sowing, upland soil, 14 days after application, read-out: weed inhibition rate.
A further assay deals with Amaranthus viridis. The assay can be described thus: Test Example 3: herbicidal effect test by soil application in upland field. The following applies: Amaranthus viridis, 120 g per 10 ares, sprayed one day after sowing, 14 days after application, read-out: weed inhibition rate. Put shortly:
as §3

Assay [18] concerns Lindernia pyxidaria. The assay can be described thus: Test Example 2: herbicidal effect test by application during growth period of paddy rice. The following applies: 120 g per 10 ares, applied seven days after sowing, flooded pots, 14 days after application, read-out: weed inhibition rate. Put shortly:
as §2

Assay [19] concerns Scirpus juncoides. Described as above. The following applies: Schoenoplectiella juncoides; 120 g per 10 ares; applied seven days after sowing, flooded pots; 14 days after application; read-out: weed inhibition rate. Put shortly: as §2

We go through nine molecules from patent EP4707280A1, “1,4-CINEOLE DERIVATIVE AND INTERMEDIATE THEREOF, HERBICIDE CONTAINING SAID DERIVATIVE AS ACTIVE INGREDIENT, METHOD FOR USING HERBICIDE, AND METHOD FOR PREPARING AGROCHEMICAL COMPOSITION” (HOKKO CHEMICAL INDUSTRY CO., LTD., priority 2023, dated 2024).

What is called inhibition is the change of the read-out against control, counted positive when it falls.

For the molecule `C=C1C(OCc2ccccc2C)C2(C)CCC1(C(C)C)O2` (stereo not shown), the “Weed inhibition rate (%)” value in [1] stood at 20%.

As for `Cc1ccccc1COC1CC2(C(C)C)CCC1(C)O2` (stereo not shown), the inhibition at 75 g/ha in [1] was determined as 73%.

For `CC(C)[C@]12C[C@@H](OCc3ccccc3F)[C@](C)(C[C@@H]1C)O2` [1-93, (1S,2R,4R,5S)-2-[(2-fluorophenyl)methoxy]-1,5-dimethyl-4-isopropyl-7-oxabicyclo[2.2.1]heptane], the pest or weed control at 1200 g/ha in [2] was at least 80%. For the same molecule, the inhibition at 1200 g/ha (in assay [3]; with Digitaria ciliaris [4]; in the assay with Echinochloa crus-galli [5]; in the assay with Digitaria ciliaris [6]; in the assay on Echinochloa crus-galli [7]) was at least 80% each time. In assay [1], the inhibition at 75 g/ha came to 100%.

`CC(C)[C@]12C[C@@H](OCc3ccccc3F)[C@](C)(CC1c1ccccc1)O2` (stereo partly drawn) [1-322, (1S,2R,4R)-2-((2-fluorobenzyl)oxy)-4-isopropyl-1-methyl-5-phenyl-7-oxabicyclo[2.2.1]heptane]: the pest or weed control at 1200 g/ha in assay [2] is at least 80%. Further, the inhibition at 1200 g/ha (in [3]; in the assay with Chenopodium album [8]; with Echinochloa crus-galli [5]; in the assay on Digitaria ciliaris [6]; in the assay on Echinochloa crus-galli [7]) was at least 80% throughout. Moreover, the inhibition at 75 g/ha (in assay [9]; in [10]; in the assay on Digitaria ciliaris [11]; with Echinochloa crus-galli [12]) was at least 80% in each case.

In the case of `CC(C)[C@]12C[C@@H](OCc3ccccc3F)[C@](C)(CC1c1ccccc1F)O2` (stereo partly drawn) [1-922, (1S,2R,4R)-2-((2-fluorobenzyl)oxy)-5-(2-fluorophenyl)-4-isopropyl-1-methyl-7-oxabicyclo[2.2.1]heptane], the pest or weed control at 1200 g/ha (in assay [2]; in the assay with Scirpus juncoides [13]; with Lindernia pyxidaria [14]; with Monochoria vaginalis [15]) was at least 80% each time. The inhibition at 1200 g/ha (in [3]; in the assay with Monochoria vaginalis [16]; in the assay on Echinochloa crus-galli [5]; in the assay on Digitaria ciliaris [6]; with Echinochloa crus-galli [7]) was at least 80% throughout. Also, in assay [9], the inhibition at 75 g/ha is at least 80%.

Take `CC(C)[C@]12C[C@@H](OCc3ccccc3F)[C@](C)(CC1c1ccc(F)cc1)O2` (stereo partly drawn) [1-924, (1S,2R,4R)-2-((2-fluorobenzyl)oxy)-5-(4-fluorophenyl)-4-isopropyl-1-methyl-7-oxabicyclo[2.2.1]heptane]: the pest or weed control at 1200 g/ha (in assay [2]; in the assay with Scirpus juncoides [13]; in the assay on Lindernia pyxidaria [14]; in the assay with Monochoria vaginalis [15]) was at least 80% each time. Further, the inhibition at 1200 g/ha (in [3]; with Echinochloa crus-galli [5]; with Chenopodium album [17]; in the assay on Digitaria ciliaris [6]; in the assay on Echinochloa crus-galli [7]) was at least 80% in each case.

In the case of `Cc1cccc(C2C[C@]3(C)O[C@@]2(C(C)C)C[C@H]3OCc2ccccc2F)c1` (stereo partly drawn) [1-926, (1S,2R,4R)-2-((2-fluorobenzyl)oxy)-4-isopropyl-1-methyl-5-(m-tolyl)-7-oxabicyclo[2.2.1]heptane], the pest or weed control at 1200 g/ha (in [2]; in the assay with Scirpus juncoides [13]) was at least 80% in each case. Moreover, the inhibition at 1200 g/ha (in assay [3]; with Amaranthus viridis; in the assay on Chenopodium album [8]; in the assay with Echinochloa crus-galli [5]) was at least 80% each time.

In the case of `Cc1ccc(CO[C@@H]2C[C@]3(C(C)C)O[C@@]2(C)CC3=O)cc1` [2-350, (1R,4S,5R)-1-isopropyl-4-methyl-5-[(4-methylbenzyl)oxy]-7-oxabicyclo[2.2.1]heptan-2-one], the pest or weed control at 1200 g/ha (in assay [2]; with Scirpus juncoides [13]; in the assay with Monochoria vaginalis [15]) was at least 80% each time. Besides, the inhibition at 1200 g/ha (in assay [3]; with Chenopodium album [8]; with Digitaria ciliaris [4]; with Echinochloa crus-galli [5]; with Digitaria ciliaris [6]; in the assay with Echinochloa crus-galli [7]) was at least 80% each time. The inhibition at 75 g/ha (in assay [9]; in assay [10]; with Echinochloa crus-galli [12]) was at least 80% throughout.

Turning to `Cc1cccc(CO[C@@H]2C[C@]3(C(C)C)O[C@@]2(C)CC3=O)c1` [2-352, (1R,4S,5R)-1-isopropyl-4-methyl-5-((3-methylbenzyl)oxy)-7-oxabicyclo[2.2.1]heptan-2-one], the pest or weed control at 1200 g/ha (in assay [2]; in the assay on Scirpus juncoides [13]) was at least 80% in each case. The inhibition at 1200 g/ha (in [3]; with Lindernia pyxidaria [18]; with Scirpus juncoides [19]; with Digitaria ciliaris [4]; in the assay on Echinochloa crus-galli [5]; in the assay on Digitaria ciliaris [6]) was at least 80% throughout. In the assay on Echinochloa crus-galli [7], the inhibition at 1200 g/ha was at least 80%. Further, the inhibition at 75 g/ha in assay [9] and in assay [10] was at least 80% in each case.
